Values joined by “and” are separate entries in the source; they are usually repeats but may differ in a detail not shown here. Equal values may be shown once.
Experiments:
[1] = test system: S2 cells; experiment: Single cell whole genome sequencing for somatic point mutations after ENU treatment; type: cell-based, Drosophila melanogaster
Procedure: To assess somatic mutation spectra in single cells in a genome-wide manner S2 cells derived from Drosophila melanogaster, an organism with a genome size of 160 MB, were used. The strategy followed is outlined in FIG. 1B. Individual single cells were picked from an S2 cell culture 72-h after treatment with 4.2 mM of the powerful point mutagen N-ethyl-N-nitrosourea (ENU) or mock treated with solvent (control). At 72-h post-treatment virtually no lesions remain (6,7) and cell survival is greater than 90% (8) (results not shown). Each single cell was lysed and subjected to whole genome amplification (WGA) using an optimized multiple displacement amplification (MDA) protocol (see Methods and Materials)(9). The amplified cells were first screened for locus dropout by qPCR using primer pairs distributed over the different chromosomes (FIG. 5). DNA from the cells displaying the least amount of dropout was fragmented and processed to generate sequencing libraries for the Illumina HiSeq platform. In this way libraries of three untreated and three ENU-treated cells were prepared. For comparison, a similar library was made from unamplified total genomic DNA from the untreated S2 cell population. To identify all possible mutations, either spontaneously formed in the unexposed, control cells or induced by ENU in the treated cells, the libraries were sequenced from both ends, generating between 50-100 million 108-bp paired-end reads per cell. Alignment to the Drosophila reference sequence (dm3) was performed using BWA (10), and post-processing was completed using the Genome Analysis Toolkit (GATK) (11). […] Since ENU is a point mutagen the subsequent analysis was based on this type of mutations only. The pipeline developed for somatic point mutation discovery is described in further detail in the Methods and Materials section. Briefly, aligned sequence data from the unamplified sample and a single cell was compared and all differences with the reference sequence were recorded as variants. Variants with sufficient coverage (20×) in both the unamplified and the single cell sample were classified as “germline” or “somatic” based on whether the variant was shared between the two samples. Somatic variants were further processed using a strand-bias filter and were visually validated using the Integrative Genomics Viewer (IGV) (12).
Single cells were collected under an inverted microscope by hand-held capillaries, deposited in PCR tubes along with 2 μl of culture medium, and immediately frozen on dry ice. […] The reaction products were purified using AMPure XP magnetic beads (Agencourt, Beverly, Mass.) and the reaction yield was measured using the NanoDrop 1000 spectrophotometer (Nanodrop Technologies LLC, Wilmington, Del.). […]

[2] = test system: S2 cells; experiment: Cell survival after ENU treatment; type: cell-based, Drosophila melanogaster; conditions: 72-h post-treatment, 4.2 mM ENU
Procedure: To assess somatic mutation spectra in single cells in a genome-wide manner S2 cells derived from Drosophila melanogaster, an organism with a genome size of 160 MB, were used. The strategy followed is outlined in FIG. 1B. Individual single cells were picked from an S2 cell culture 72-h after treatment with 4.2 mM of the powerful point mutagen N-ethyl-N-nitrosourea (ENU) or mock treated with solvent (control). At 72-h post-treatment virtually no lesions remain (6,7) and cell survival is greater than 90% (8) (results not shown). Each single cell was lysed and subjected to whole genome amplification (WGA) using an optimized multiple displacement amplification (MDA) protocol (see Methods and Materials)(9). The amplified cells were first screened for locus dropout by qPCR using primer pairs distributed over the different chromosomes (FIG. 5). […] To identify all possible mutations, either spontaneously formed in the unexposed, control cells or induced by ENU in the treated cells, the libraries were sequenced from both ends, generating between 50-100 million 108-bp paired-end reads per cell. […] Briefly, aligned sequence data from the unamplified sample and a single cell was compared and all differences with the reference sequence were recorded as variants. […]

[3] = test system: mouse embryonic fibroblast (MEF); experiment: Single cell reduced representation (MseI) sequencing for somatic point mutations after ENU treatment; type: cell-based
Procedure: Therefore, the procedure shown in FIG. 1B was slightly modified, using a reduced representation approach based on restriction enzyme digestion. For this purpose mouse embryonic fibroblast (MEF) populations were used either treated with 4.2 mM ENU or mock-treated with solvent only. Instead of preparing sequencing libraries directly using randomly fragmented DNA, whole genome amplified DNA was digested from two treated and two control MEFs, as well as unamplified genomic DNA from the MEF population, with MseI, a four-base cutter with a TTAA cleavage site. Following digestion an agarose gel size-selection was performed for fragments between 250-bp and 350-bp, corresponding to a target region of approximately 300 MB. The fragments were sequenced using 121-bp single-end reads. […] Due to the nature of the reduced representation library, the strand bias filter could not be used and therefore a more stringent mutant read frequency cutoff (>40%) was adopted. Out of the 300-MB target region, 220 MB (73%) had sufficient coverage (10×) in the unamplified control sample and 85-93 MB (39-42%) of the 220 MB overlapped with regions of sufficient coverage in the single MEFs. Due to the absence of a sufficient number of heterozygous SNPs in the MEF cell line, allele dropout was estimated using the distribution of mutant read frequencies found in the ENU-treated MEF cells.
Single cells were collected under an inverted microscope by hand-held capillaries, deposited in PCR tubes along with 2 μl of culture medium, and immediately frozen on dry ice. Cells were lysed and amplified using the REPLI-g UltraFast Mini kit (Qiagen, Santa Clara, Calif.) according to the manufacturer's instructions, but using an initial 30-min amplification at 30° C. followed by an 18-hour amplification at 35° C. The reaction products were purified using AMPure XP magnetic beads (Agencourt, Beverly, Mass.) and the reaction yield was measured using the NanoDrop 1000 spectrophotometer (Nanodrop Technologies LLC, Wilmington, Del.). Reactions with yield of greater than 1 μg were tested for locus dropout at eight loci using comparative Ct measurements from real-time PCR (StepOne Plus, Applied Biosystems, Foster City, Calif.) performed with Fast SYBR® Green Master Mix (Foster City, Calif.). Up to 5 μg of DNA from samples displaying the least biased amplification was used as input for Illumina libraries. DNA was either randomly fragmented (S2 cells) or digested (MEFs) with 50 U of Msei (NEB, Ipswich, Mass.). Digested DNA (MEFs) was end-repaired using Mung Bean Nuclease (NEB, Ipswich, Mass.) and then used as input for the Illumina library preparation. S2 libraries were size-selected to 475-525-bp and MEF libraries were size selected to 250-350-bp using agarose gel electrophoresis. […] The aligned sequence data was processed using genome analysis toolkit (GATK) (e.g., available at www.broadinstitute.org) to realign reads containing indels or a high entropy of mismatches, recalibrate the base quality scores, and to compute coverage data and statistics. Somatic point mutations and germline variation were scored using a pipeline composed of SAMtools mpileup command (e.g., available at samtools.sourceforge.net/mpileup.shtml), VarScan somatic command (e.g., available at varscan.sourceforge.net/somatic-calling.html) and a custom script to parse and filter the VarScan output. Somatic events found in multiple single cells were discarded, as were events found in at least one read in the unamplified control sample. […]

[4] = test system: S2 cells; experiment: Reduced representation paired-end sequencing assay for genome rearrangements in bleomycin-treated cells; type: cell-based, Drosophila melanogaster; conditions: bleomycin-treated S2 cells as compared to untreated cells
Procedure: Genomic DNA from cultured mouse (embryonic fibroblasts; MEFs) and fly (Drosophila melanogaster embryo cell line; S2) cells was analyzed by paired-end (“PE”) sequencing after a restriction enzyme digestion (HindIII for mouse and PstI for fly) and size selection. The fly and mouse genomes are structured very differently, with the mouse genome consisting of close to 50% repetitive DNA and the fly genome only 3%. The libraries were sequenced using a paired-end kit on the Illumina® Genome Analyzer fix with a read length of 85 bp. […] Alterations in the distance between two PE reads relative to the distance predicted by the RefSeq indicate putative genome rearrangements. […] First, any read pairs that had mapping quality scores lower than 30 (e.g. see Li H, Ruan J, Durbin R. (2008) Mapping short DNA sequencing reads and calling variants using mapping quality scores. Genome Research 18:1851-1858, hereby incorporated by reference in its entirety, for mapping scores) were filtered out. This removed repeat-spanning reads with ambiguous placement on the reference genome. […]
It was reasoned that treatment of S2 cells with a clastogen should give rise to elevated frequencies of genome rearrangements. […] The frequencies of genome rearrangements were expressed per read pair. […]

[5] = single S2 cell, 72-h after treatment with 4.2 mM ENU
[6] = single MEF, treated with 4.2 mM ENU

Molecule	majority of the ENU-induced mutations (mutation spectrum) ([1]; S2 cells)	induction of point mutations ([1]; on average in the exposed S2 cells vs control cells)	Mutations per Mb [1, 5]	Point mutations [1, 5]	cell survival [2]	induction of point mutations ([3]; ENU-treated MEF cells vs control MEFs)	majority of the ENU-induced mutations (mutation spectrum) ([3]; MEF cells)	ENU-induced mutation frequency in MEF cells, higher than that found in the S2 cells ([3]; mutations per MB, MEF vs S2)	Mutations per Mb [3, 6]	Point mutations [3, 6]	increase in genomic mutation frequency (genome rearrangements per read pair) [4]
CCN(N=O)C(N)=O [ENU, N-ethyl-N-nitrosourea]	T->A, T->C and G->A mutations	7.5 fold	3.27 and 2.54 and 3.18	938 and 482 and 690	greater than 90%	35 fold	T->A, T->C and G->A mutations	30%	3.97 and 3.91	426 and 446	–
bleomycin	–	–	–	–	–	–	–	–	–	–	approximately 3 fold
